The test system of the test is Cochliobolus miyabeanus. The test can be described thus: Activity against brown spot of rice caused by Cochliobolus miyabeanus, protective application. Format: in vivo. The note with it: individual active compound, rice seedlings, rated after six days. On the procedure: The active compounds, separately or jointly, were prepared as a stock solution comprising 0.25% by weight of active compound in acetone or DMSO. 1% by weight of the emulsifier Uniperol® EL (wetting agent having emulsifying and dispersing action based on ethoxylated alkylphenols) was added to this solution, and the mixture was appropriately diluted with water to the desired concentration.
Use example—Activity against brown spot of rice caused by Cochliobolus miyabeanus, protective application Leaves of rice seedlings of the cultivar “Tai-Nong 67” which had been grown in pots were sprayed to runoff point with an aqueous suspension having the concentration of active compound stated below. The next day, the plants were inoculated with an aqueous spore suspension of Cochliobolus miyabeanus. The test plants were then placed in climatized chambers at 22-24° C. and 95-99% relative atmospheric humidity for six days. The extent of the development of infection on the leaves was then determined visually.
Evaluation is carried out by determining the infected leaf areas in percent. These percentages were converted into efficacies.
The efficacy (E) is calculated as follows using Abbot's formula: […]
α corresponds to the fungal infection of the treated plants in % and β corresponds to the fungal infection of the untreated (control) plants in % An efficacy of 0 means that the infection level of the treated plants corresponds to that of the untreated control plants; an efficacy of 100 means that the treated plants are not infected.
The expected efficacies of the mixtures of active compounds are determined using Colby's formula [R. S. Colby, Weeds, 15, 20-22 (1967)] and are compared with the observed efficacies.
E expected efficacy, expressed in % of the untreated control, when using the mixture of the active compounds A and B at the concentrations a and b x efficacy, expressed in % of the untreated control, when using active compound A at the concentration a y efficacy, expressed in % of the untreated control, when using active compound B at the concentration b

On to `CC1CCN(c2c(-c3c(F)cc(F)cc3F)c(Cl)nc3ncnn23)CC1` [I, 5-chloro-7-(4-methylpiperidin-1-yl)-6-(2,4,6-trifluorophenyl)-[1,2,4]tri-azolo[1,5-a]pyrimidine], for which, where the note is “4 ppm in the spray liquor”, the “Efficacy in % of the untreated control” value is 32%.
Regarding `CCCCCCCCCCCCCN1CC(C)OC(C)C1` (stereo not shown) [II (tridemorph), tridemorph], the “Efficacy in % of the untreated control” value is, setting by setting: (1 ppm in the spray liquor) 0%; (4 ppm in the spray liquor) 0%; (16 ppm in the spray liquor) 9%.

Source of the values: patent US20080139387A1, “Fungicidal Mixtures” (BASF Aktiengesellschaft, priority 2004, published 2008).
